Each block holds one compound with its values, some of them ahead of it.
Legend:
rabbit aorta rings = assay: Vasorelaxant effect in vitro (phenylephrine-contracted aorta rings); settings: Oryctolagus cuniculus, phenylephrine contraction, concentration reducing control contraction by 50%
Description: Rabbits are stunned by a blow to the neck and exsanguinated. The aorta is removed, freed from adhering tissue and divided into rings of a width of 1.5 mm. The rings are placed individually under an initial tension in 5 ml organ baths with Krebs-Henseleit solution which is at 37° C., is gassed with carbogen and has the following composition (in each case mM): sodium chloride: 119; potassium chloride: 4.8; calcium chloride dihydrate: 1; magnesium sulphate heptahydrate: 1.4; potassium dihydrogenphosphate: 1.2; sodium bicarbonate: 25; glucose: 10. The contractile force is determined with Statham UC2 cells, amplified and digitalized using A/D transducers (DAS-1802 HC, Keithley Instruments Munich), and recorded in parallel on linear recorders. To produce a contraction, phenylephrine is added to the bath cumulatively in increasing concentration. After several control cycles, the substance to be investigated is added in each further run in increasing dosage in each case, and the height of the contraction achieved is compared with the height of the contraction reached in the last preceding run. This is used to calculate the concentration needed to reduce the magnitude of the control value by 50% (IC50 value). The standard administration volume is 5 μl; the DMSO content in the bath solution corresponds to 0.1%.

[1] = target: T1, recombinant guanylate cyclase reporter cell line (Rattus norvegicus, UniProt P19686+P20595); assay: Effect on a recombinant guanylate cyclase reporter cell line; assay type: cell-based
T1 construct: expressed in transfected cells; host or cells: recombinant reporter cell line
T1 sequence (P19686 1-690): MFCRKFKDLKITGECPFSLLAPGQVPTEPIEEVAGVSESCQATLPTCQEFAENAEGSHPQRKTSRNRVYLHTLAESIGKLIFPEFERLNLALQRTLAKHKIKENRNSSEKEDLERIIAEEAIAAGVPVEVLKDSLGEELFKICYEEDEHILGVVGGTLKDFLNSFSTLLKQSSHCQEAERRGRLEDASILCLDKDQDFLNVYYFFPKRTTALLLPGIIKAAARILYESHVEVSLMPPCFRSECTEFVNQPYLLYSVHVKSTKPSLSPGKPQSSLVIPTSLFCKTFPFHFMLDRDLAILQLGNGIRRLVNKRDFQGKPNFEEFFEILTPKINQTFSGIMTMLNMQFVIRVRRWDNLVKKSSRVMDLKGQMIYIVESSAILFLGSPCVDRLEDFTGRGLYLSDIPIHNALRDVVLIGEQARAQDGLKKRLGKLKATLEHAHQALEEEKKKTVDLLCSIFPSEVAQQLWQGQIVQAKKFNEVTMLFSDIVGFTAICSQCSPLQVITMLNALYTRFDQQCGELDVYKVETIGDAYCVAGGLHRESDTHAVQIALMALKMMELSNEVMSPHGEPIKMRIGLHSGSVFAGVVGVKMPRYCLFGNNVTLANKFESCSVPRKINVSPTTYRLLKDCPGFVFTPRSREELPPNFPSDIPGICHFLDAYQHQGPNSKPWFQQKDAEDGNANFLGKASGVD
T1 sequence (P20595 1-619): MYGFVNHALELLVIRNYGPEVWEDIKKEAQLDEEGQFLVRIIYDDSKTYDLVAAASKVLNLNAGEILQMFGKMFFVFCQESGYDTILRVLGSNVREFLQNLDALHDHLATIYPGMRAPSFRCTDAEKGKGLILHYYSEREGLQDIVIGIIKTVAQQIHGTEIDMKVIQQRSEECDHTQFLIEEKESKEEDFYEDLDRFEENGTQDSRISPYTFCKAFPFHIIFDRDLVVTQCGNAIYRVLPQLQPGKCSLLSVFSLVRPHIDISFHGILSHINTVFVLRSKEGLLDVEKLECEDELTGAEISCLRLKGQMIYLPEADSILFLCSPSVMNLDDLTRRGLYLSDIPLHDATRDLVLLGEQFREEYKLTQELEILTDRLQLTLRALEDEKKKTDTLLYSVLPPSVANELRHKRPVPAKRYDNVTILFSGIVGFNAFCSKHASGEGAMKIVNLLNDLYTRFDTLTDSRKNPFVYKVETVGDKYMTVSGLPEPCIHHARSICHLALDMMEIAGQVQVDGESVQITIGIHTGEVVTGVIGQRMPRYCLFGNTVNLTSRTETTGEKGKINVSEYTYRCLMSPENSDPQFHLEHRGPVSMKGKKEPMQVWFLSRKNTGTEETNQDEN
Description: The cellular activity of the compounds according to the invention is determined using a recombinant guanylate cyclase reporter cell line, as described in F. Wunder et al., Anal. Biochem. 339, 104-112 (2005).

Structure (SMILES): CC1(C)C(=O)Nc2nc(-c3nn(Cc4ncccc4F)c4ncc(F)cc34)nc(I)c21 [Example 4, 2-{5-Fluoro-1-[(3-fluoropyridin-2-yl)methyl]-1H-pyrazolo[3,4-b]pyridin-3-yl}-4-iodo-5,5-dimethyl-5,7-dihydro-6H-pyrrolo[2,3-d]pyrimidin-6-one]
- MEC (minimum effective concentration) [1]: 0.3 µM

Structure (SMILES): CC1(C)C(=O)Nc2nc(-c3nn(Cc4c(F)cncc4F)c4ncc(F)cc34)nc(O)c21 [Example 9, 2-{1-[(3,5-Difluoropyridin-4-yl)methyl]-5-fluoro-1H-pyrazolo[3,4-b]pyridin-3-yl}-4-hydroxy-5,5-dimethyl-5,7-dihydro-6H-pyrrolo[2,3-d]pyrimidin-6-one]
- MEC (minimum effective concentration) [1]: 3.0 µM

Structure (SMILES): CC1(C)C(=O)Nc2nc(-c3nn(Cc4c(F)cncc4F)c4ncc(F)cc34)nnc21 [Example 11, 3-{1-[(3,5-Difluoropyridin-4-yl)methyl]-5-fluoro-1H-pyrazolo[3,4-b]pyridin-3-yl}-7,7-dimethyl-5,7-dihydro-6H-pyrrolo[2,3-e][1,2,4]triazin-6-one]
- IC50 (rabbit aorta rings): 2540 nM
- MEC (minimum effective concentration) [1]: 3.0 µM

Structure (SMILES): CC1(C)C(=O)Nc2nc(-c3nn(Cc4ccncc4F)c4ncc(F)cc34)nnc21 [Example 15, 3-{5-Fluoro-1-[(3-fluoropyridin-4-yl)methyl]-1H-pyrazolo[3,4-b]pyridin-3-yl}-7,7-dimethyl-5,7-dihydro-6H-pyrrolo[2,3-e][1,2,4]triazin-6-one]
- IC50 (rabbit aorta rings): 2230 nM
- MEC (minimum effective concentration) [1]: 3.0 µM

Structure (SMILES): CC1(C)C(=O)Nc2nc(-c3nn(Cc4ncc(F)cc4F)c4ncc(F)cc34)nnc21 [Example 16, 3-{1-[(3,5-Difluoropyridin-2-yl)methyl]-5-fluoro-1H-pyrazolo[3,4-b]pyridin-3-yl}-7,7-dimethyl-5,7-dihydro-6H-pyrrolo[2,3-e][1,2,4]triazin-6-one]
- MEC (minimum effective concentration) [1]: 1.0 µM

Structure (SMILES): CC1(C)C(=O)Nc2nc(-c3nn(Cc4cncnc4)c4ncc(F)cc34)ncc21 [Example 18, 2-[5-Fluoro-1-(pyrimidin-5-ylmethyl)-1H-pyrazolo[3,4-b]pyridin-3-yl]-5,5-dimethyl-5,7-dihydro-6H-pyrrolo[2,3-d]pyrimidin-6-one]
- IC50 (rabbit aorta rings): 196 nM
- MEC (minimum effective concentration) [1]: 0.1 µM

Structure (SMILES): CC1(C)C(=O)Nc2nc(-c3nn(Cc4sccc4F)c4ncc(F)cc34)nnc21 [Example 20, 3-{5-Fluoro-1-[(3-fluoro-2-thienyl)methyl]-1H-pyrazolo[3,4-b]pyridin-3-yl}-7,7-dimethyl-5,7-dihydro-6H-pyrrolo[2,3-e][1,2,4]triazin-6-one]
- MEC (minimum effective concentration) [1]: 0.01 µM

Continued by falling IC50 (rabbit aorta rings), values first:

- IC50 (rabbit aorta rings): 1320 nM
- MEC (minimum effective concentration) [1]: 10 µM
Structure (SMILES): CC1(C)C(=O)Nc2nc(-c3nn(Cc4ncccn4)c4ncc(F)cc34)nnc21 [Example 1, 3-[5-Fluoro-1-(pyrimidin-2-ylmethyl)-1H-pyrazolo[3,4-b]pyridin-3-yl]-7,7-dimethyl-5,7-dihydro-6H-pyrrolo[2,3-e][1,2,4]triazin-6-one]

- IC50 (rabbit aorta rings): 627 nM
- MEC (minimum effective concentration) [1]: 3 µM
Structure (SMILES): CC1(C)C(=O)Nc2nc(-c3nn(Cc4ncccc4F)c4ncc(F)cc34)nc(O)c21 [Example 5, 2-{5-Fluoro-1-[(3-fluoropyridin-2-yl)methyl]-1H-pyrazolo[3,4-b]pyridin-3-yl}-4-hydroxy-5,5-dimethyl-5,7-dihydro-6H-pyrrolo[2,3-d]pyrimidin-6-one]

- IC50 (rabbit aorta rings): 361 nM
- MEC (minimum effective concentration) [1]: 0.1 µM
Structure (SMILES): CC1(C)C(=O)Nc2nc(-c3nn(Cc4cncnc4)c4ncc(F)cc34)nnc21 [Example 19, 3-[5-Fluoro-1-(pyrimidin-5-ylmethyl)-1H-pyrazolo[3,4-b]pyridin-3-yl]-7,7-dimethyl-5,7-dihydro-6H-pyrrolo[2,3-e][1,2,4]triazin-6-one]

- IC50 (rabbit aorta rings): 259 nM
- MEC (minimum effective concentration) [1]: 1.0 µM
Structure (SMILES): CC1(C)C(=O)Nc2nc(-c3nn(Cc4c(F)cncc4F)c4ncc(F)cc34)ncc21 [Example 10, 2-[1-[(3,5-Difluoropyridin-4-yl)methyl]-5-fluoro-1H-pyrazolo[3,4-b]pyridin-3-yl]-5,5-dimethyl-5,7-dihydro-6H-pyrrolo[2,3-d]pyrimidin-6-one]

- IC50 (rabbit aorta rings): 207 nM
- MEC (minimum effective concentration) [1]: 1.0 µM
Structure (SMILES): CC1(C)C(=O)Nc2nc(-c3nn(Cc4ccncc4F)c4ncc(F)cc34)ncc21 [Example 14, 2-{5-Fluoro-1-[(3-fluoropyridin-4-yl)methyl]-1H-pyrazolo[3,4-b]pyridin-3-yl}-5,5-dimethyl-5,7-dihydro-6H-pyrrolo[2,3-d]pyrimidin-6-one]

- IC50 (rabbit aorta rings): 121 nM
- MEC (minimum effective concentration) [1]: 1.0 µM
Structure (SMILES): CC1(C)C(=O)Nc2nc(-c3nn(Cc4ccncc4F)c4ncc(F)cc34)nc(N)c21 [Example 12, 4-Amino-2-[5-fluoro-1-[(3-fluoropyridin-4-yl)methyl]-1H-pyrazolo[3,4-b]pyridin-3-yl]-5,5-dimethyl-5,7-dihydro-6H-pyrrolo[2,3-d]pyrimidin-6-one]

- IC50 (rabbit aorta rings): 116 nM
- MEC (minimum effective concentration) [1]: 0.3 µM
Structure (SMILES): CC1(C)C(=O)Nc2nc(-c3nn(Cc4c(F)cncc4F)c4ncc(F)cc34)nc(N)c21 [Example 7, 4-Amino-2-{1-[(3,5-difluoropyridin-4-yl)methyl]-5-fluoro-1H-pyrazolo[3,4-b]pyridin-3-yl}-5,5-dimethyl-5,7-dihydro-6H-pyrrolo[2,3-d]pyrimidin-6-one]

- IC50 (rabbit aorta rings): 99 nM
- MEC (minimum effective concentration) [1]: 0.1 µM
Structure (SMILES): CC1(C)C(=O)Nc2nc(-c3nn(Cc4cncnc4)c4ncc(F)cc34)nc(N)c21 [Example 21, 4-Amino-2-[5-fluoro-1-(pyrimidin-5-ylmethyl)-1H-pyrazolo[3,4-b]pyridin-3-yl]-5,5-dimethyl-5,7-dihydro-6H-pyrrolo[2,3-d]pyrimidin-6-one]

Reference: patent US20140228366A1, “HETEROARYL-SUBSTITUTED PYRAZOLOPYRIDINES AND USE THEREOF AS SOLUBLE GUANYLATE CYCLASE STIMULATORS” (BAYER INTELLECTUAL PROPERTY GMBH, priority 2011, published 2014)
